# According to PMC5155291 (Scientific Reports, 2016):
# Where two headings read alike, the source gives them in different places.
# Assays:
# WT hDAT [1] = target: T1, WT hDAT (Homo sapiens, UniProt Q01959); experiment: Kinetic analysis of [3H]DA uptake in the presence or absence of PMA or BIM; format: cell-based; conditions: 30 min preincubation
# T1 construct: Synthetic cDNA encoding hDAT subcloned into pcDNA3.1+; expressed in transfected cells; host or cells: PC12 cells (ATCC CRL-1721), transient transfection with pcDNA3.1+ plasmid, Lipofectamine 2000
# T1 sequence (Q01959 whole entry): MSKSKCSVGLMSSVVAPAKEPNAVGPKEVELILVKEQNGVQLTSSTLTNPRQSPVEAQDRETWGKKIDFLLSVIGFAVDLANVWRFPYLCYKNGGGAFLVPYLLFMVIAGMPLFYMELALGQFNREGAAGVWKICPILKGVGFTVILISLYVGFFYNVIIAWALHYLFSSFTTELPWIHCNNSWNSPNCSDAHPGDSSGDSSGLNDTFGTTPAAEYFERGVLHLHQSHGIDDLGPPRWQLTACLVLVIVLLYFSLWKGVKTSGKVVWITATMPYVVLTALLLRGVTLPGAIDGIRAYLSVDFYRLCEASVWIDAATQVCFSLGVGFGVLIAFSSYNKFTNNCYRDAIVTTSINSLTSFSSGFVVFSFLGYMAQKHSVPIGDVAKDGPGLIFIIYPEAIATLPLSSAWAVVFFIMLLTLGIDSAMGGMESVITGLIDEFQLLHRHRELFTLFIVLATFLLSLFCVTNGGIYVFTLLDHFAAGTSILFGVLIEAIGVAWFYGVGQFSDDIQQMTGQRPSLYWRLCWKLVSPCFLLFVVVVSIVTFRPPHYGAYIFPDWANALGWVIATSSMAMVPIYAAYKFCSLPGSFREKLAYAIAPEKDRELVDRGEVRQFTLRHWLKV
# Experimental: (§1) To determine whether H547A-induced increase in Vmax was mediated by a phosphorylation-dependent mechanism, kinetic analysis of [^3H]DA uptake was measured in the presence or absence of PKC activator PMA (Tocris, Bristol, UK) or PKC inhibitor BIM (Sigma-Aldrich, St. Louis, MO). The concentrations were chosen based on previous reports. In brief, intact PC12 cells transfected with WT or H547A-hDAT were preincubated with or without PMA or BIM (1 μM, final concentration) for 30 min at 37 °C or room temperature and then incubated with six concentrations of mixed [^3H]DA for 8 min as described above. Nonspecific uptake of each concentration of [^3H]DA (in the presence of 10 μM nomifensine) was subtracted from total uptake to calculate specific DAT-mediated uptake.
# H547A-hDAT [2] = target: T2, H547A-hDAT (Homo sapiens, UniProt Q01959, H547A); experiment: as above; format: cell-based; conditions: 1 μM PMA, 30 min preincubation, 37 °C
# T2 construct: Synthetic cDNA encoding hDAT subcloned into pcDNA3.1+; expressed in transfected cells; host or cells: PC12 cells (ATCC CRL-1721), transient transfection with pcDNA3.1+ plasmid
# T2 sequence (Q01959 whole entry H547A): as the sequence (Q01959 whole entry) above, with H547A counted along it
# Experimental: as §1
# H547A-hDAT [3] = target: T2, H547A-hDAT; experiment: Competitive inhibition / modulation of [3H]WIN 35,428 binding in intact transfected PC12 cells; conditions: Zn2+ 100 μM
# H547D-hDAT = target: T3, H547D-hDAT (Homo sapiens, UniProt Q01959, H547D); experiment: Inhibition of [3H]DA uptake in intact transfected PC12 cells; format: cell-based
# T3 construct: Synthetic cDNA encoding hDAT subcloned into pcDNA3.1+; expressed in transfected cells; host or cells: PC12 cells (ATCC CRL-1721), transient transfection with pcDNA3.1+ plasmid
# T3 sequence (Q01959 whole entry H547D): as the sequence (Q01959 whole entry) above, with H547D counted along it
# Experimental: (§2) Cells were lysed in 500 μl of 1% SDS for an hour and radioactivity was measured using a liquid scintillation counter (model Tri-Carb 2900TR; PerkinElmer Life and Analytical Sciences, Waltham, MA). Vmax and Km were determined using Prism 5.0 (GraphPad Software Inc., San Diego, CA).
# (§3) Results are presented as mean ± SEM, and n represents the number of independent experiments for each experiment group. Kinetic parameters (Vmax, Km, Bmax, and Kd) were determined from saturation curves by nonlinear regression analysis using a one-site model with variable slope. […] For experiments involving comparisons between unpaired samples, unpaired Student’s t test was used to assess any difference in the kinetic parameters (Vmax, Km, Bmax, Kd or IC50) between WT and mutant; log-transformed values of IC50, Km or Kd were used for the statistical comparisons. Significant differences between samples were analyzed with separate ANOVAs followed by post-hoc tests, as indicated in the results Section of each experiment. All statistical analyses were performed using IBM SPSS Statistics version 20, and differences were considered significant at p < 0.05.
# WT hDAT [4] = target: T1, WT hDAT; experiment: as above; format: cell-based
# Experimental: as §2, §3
# WT hDAT [5] = target: T1, WT hDAT; experiment: Competitive inhibition / modulation of [3H]WIN 35,428 binding in intact transfected PC12 cells
# H547A-hDAT [6] = target: T2, H547A-hDAT; format: cell-based
# Experimental: as §2, §3
smiles,measurement,setting,value
"CN(C)CCCn1cc(C2=C(c3c[nH]c4ccccc34)C(=O)NC2=O)c2ccccc21 [BIM, bisindolylmaleimide-I]",increase in the Vmax of [3H]DA uptake relative to control,WT hDAT [1]; 1 μM BIM,98%
"CCCCCCCCCCCCCC(=O)O[C@@H]1[C@@H](C)[C@@]2(O)[C@@H](C=C(CO)C[C@]3(O)C(=O)C(C)=C[C@@H]23)[C@@H]2C(C)(C)[C@]12OC(C)=O [PMA, phorbol 12-myristate 13-acetate]",decrease in the Vmax of [3H]DA uptake compared to control,H547A-hDAT [2],60%
same,decrease in the Vmax of [3H]DA uptake compared to control,"WT hDAT [1]; 1 μM PMA, 37 °C",40%
"[Cl-].[Cl-].[Zn+2] [Zn^2+, ZnCl2]","increase in [3H]WIN 35,428 binding",H547A-hDAT [3],27%
same,decrease in [3H]DA uptake compared to control,H547D-hDAT; Zn2+ 10 μM,53%
same,decrease in [3H]DA uptake compared to control,H547D-hDAT; Zn2+ 100 μM,60%
same,decrease in [3H]DA uptake compared to control,WT hDAT [4]; Zn2+ 10 μM,25%
same,decrease in [3H]DA uptake compared to control,WT hDAT [4]; Zn2+ 100 μM,37%
same,"increase in [3H]WIN 35,428 binding",WT hDAT [5]; Zn2+ 10 μM,80%
same,"increase in [3H]WIN 35,428 binding",WT hDAT [5]; Zn2+ 100 μM,82%
same,decrease in [3H]DA uptake compared to control,"H547A-hDAT [6]; Zn2+ 10 μM, not significant",10%
same,decrease in [3H]DA uptake compared to control,H547A-hDAT [6]; Zn2+ 100 μM,38%
